Patent publication US20210395256A1, “TYROSINE KINASE INHIBITORS, COMPOSITIONS AND METHODS THERE OF” (Betta Pharmaceuticals Co., Ltd., priority 2018, published 2021)
Like-named read-outs stand apart in the source and are kept apart here.

How the values were obtained:
TrkA kinase = TrkA kinase (Homo sapiens, UniProt P04629); experiment: TrkA kinase assay (mobility shift assay); type: biochemical; details: read-out: Trk A Kinase IC50
Summary of the method: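 Ten-point compound series was preincubated 10 min at room temperature with TrkA, then FAM-peptide plus ATP added in HEPES pH 7.5/Brij-35 buffer and reacted at 28 °C before EDTA quench.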

Ba/F3-ETV6-NTRK3 = biological target: T1, Ba/F3-ETV6-NTRK3 (Homo sapiens, UniProt Q16288); experiment: Ba/F3-ETV6-NTRK3 cells proliferation assay; type: cell-based; details: 72 h, CellTiter Glo
T1 construct: Ba/F3 cells with TPM3-NTRK1 or ETV6-NTRK3 fusion mutation gene stably overexpressed named Ba/F3-TPM3-NTRK1 and Ba/F3-ETV6-NTRK3; fused on or other part: P41212 (Transcription factor ETV6)
Description: (§1) Example 202 Ba/F3-TPM3-NTRK1 and Ba/F3-ETV6-NTRK3 cells proliferation assay
(§2) Cell line: Ba/F3 cells with TPM3-NTRK1 or ETV6-NTRK3 fusion mutation gene stably overexpressed named Ba/F3-TPM3-NTRK1 and Ba/F3-ETV6-NTRK3.
(§3) RPMI 1640 and 10% FBS and 1% PS and 2 ug/mL puromycin.
(§4) b) Collect cell to a 15 mL centrifuged tube, centrifuge at 1000 rpm for 5 min. Discard the supernatant, count, and make the cell density at 1.49×10^4 cells/mL, then place it in a 37° C., 5% CO2 incubator.
(§5) a) The test compound (20 mM stock solution) was diluted to 60 μM with 100% DMSO as starting concentration then 3-fold serial diluted with “9+0” concentrations. in a 96-well dilution plate (Thermo, Cat. No. 249944);
(§6) b) The above compound solution was diluted 1:20 times with culture medium to prepare a 10 fold working solution;
(§7) a) Take cells in log phase growth, centrifuge at 1000 rpm for 5 min, then resuspend the cells with culture medium, then count cells;
(§8) b) Cells were seeded to 96-well cell culture plate with density at 2000 cells/well;
(§9) a) Compounds prepared at step 2 were added to cell plate with 15 μL per well, the final concentrations were 300, 100, 33.33, 11.11, 3.70, 1.23, 0.41, 0.14, 0.05 and 0 nM, and the final concentration of DMSO was 0.5%. The blank control well was a culture medium (0.5% DMSO);
(§10) c) The cells were incubated for an additional 72 h in the incubator.
(§11) a) Remove the 96-well cell culture plate and add 50 μl of CTG reagent (CellTiter Glo kit, promega, Cat #G7573).
(§12) b) Plate was shaked for 2 min and then let it cool for 30 min at room temperature.
(§13) c) The Luminescence signal value was read using a PerkinElmer reader.
(§14) Experimental Data Analysis
(§15) Data were analyzed using GraphPad Prism 6.0 software to obtain a fitted curve of compound activity.
(§16) Fit the Compound IC50 from non-linear regression equation:
(§17) Y=Bottom+(Top-Bottom)/(1+10^((Log IC50-X)×HillSlope));
(§18) X: The log of the concentration of the compound; Y: Luminescence value.

Ba/F3-TPM3-NTRK1 = biological target: T2, Ba/F3-TPM3-NTRK1 (Homo sapiens, UniProt P04629); experiment: Ba/F3-TPM3-NTRK1 cells proliferation assay; type: cell-based; details: 72 h, CellTiter Glo
T2 construct: expressed in transfected cells; host or cells: Ba/F3; the other entry of the earlier key: TPM3 (P06753, Tropomyosin alpha-3 chain)
Description: as §1, §2, §3, §4, §5, §6, §7, §8, §9, §10, §11, §12, §13, §14, §15, §16, §17, §18

[1] = Liver microsomes metabolic stability assay, rat; type: in vitro ADME; details: male, rat liver microsomes 0.5 mg/mL, 37° C.; for half-life at 2 μM: read-out: t1/2 Rat
Description: (§19) Example 203 Liver Microsomes Metabolic Stability Assay
(§20) Pooled human liver microsomes (Cat. 452117) were purchased from Corning. Pooled male rat liver microsomes (Cat. R1000) and pooled male mouse liver microsomes (Cat. M1000) were purchased from XENOTECH. Microsomes were stored at −80° C.
(§21) 1) Make a master solution containing phosphate buffer, ultra-pure H2O and MgCl2 solution according to Table 14.
(§22) 2) Two separated experiments were performed as follows.
(§23) a) With NADPH: 10 μL of 20 mg/mL liver microsomes and 40 μL of 10 mM NADPH were added to the incubations. The final concentrations of microsomes and NADPH were 0.5 mg/mL and 1 mM, respectively.
(§24) b) Without NADPH: 10 μL of 20 mg/mL liver microsomes and 40 μL of ultra-pure H2O were added to the incubations. The final concentration of microsomes was 0.5 mg/mL.
(§25) 3) The reaction was started with the addition of 4 μL test compounds solutions or control compound solution (verapamil) at the final concentration of 2 μM and carried out at 37° C.
(§26) 4) Aliquots of 50 μL were taken from the reaction solution at 0, 15, 30, 45 and 60 min. The reaction solutions were stopped by the addition of 4 volumes of cold acetonitrile with 1S (100 nM alprazolam, 200 nM caffeine, 200 nM labetalol and 2 μM ketoprofen). Samples were centrifuged at 3,220 g for 40 minutes. Aliquot of 100 μL of the supernatant was mixed with 100 μL of ultra-pure H2O and then used for LC-MS/MS analysis. All experiments were performed in duplicate.
(§27) The slope value, k, was determined by linear regression of the natural logarithm of the remaining percentage of the parent drug vs. incubation time curve.
(§28) The in vitro half-life (in vitro t1/2) was determined from the slope value:
(§29) Conversion of the in vitro t1/2 (in min) into the in vitro intrinsic clearance (in vitro CLint, in μL/min/mg proteins) was done using the following equation (mean of duplicate determinations): […]
(§30) The control compound (verapamil) was included in the assay. Any value of the compounds that was not within the specified limits will be rejected and the experiment will be repeated.

[2] = Liver microsomes metabolic stability assay, mouse; type: in vitro ADME; details: male, mouse liver microsomes 0.5 mg/mL, 37° C.; for half-life at 2 μM: read-out: t1/2 Mouse
Description: as §19, §20, §21, §22, §23, §24, §25, §26, §27, §28, §29, §30

[3] = Liver microsomes metabolic stability assay, human; type: in vitro ADME; details: human liver microsomes 0.5 mg/mL, 37° C.; for half-life at 2 μM: read-out: t1/2 Human
Description: as §19, §20, §21, §22, §23, §24, §25, §26, §27, §28, §29, §30

Chain of TrkA kinase (P04629 33-796): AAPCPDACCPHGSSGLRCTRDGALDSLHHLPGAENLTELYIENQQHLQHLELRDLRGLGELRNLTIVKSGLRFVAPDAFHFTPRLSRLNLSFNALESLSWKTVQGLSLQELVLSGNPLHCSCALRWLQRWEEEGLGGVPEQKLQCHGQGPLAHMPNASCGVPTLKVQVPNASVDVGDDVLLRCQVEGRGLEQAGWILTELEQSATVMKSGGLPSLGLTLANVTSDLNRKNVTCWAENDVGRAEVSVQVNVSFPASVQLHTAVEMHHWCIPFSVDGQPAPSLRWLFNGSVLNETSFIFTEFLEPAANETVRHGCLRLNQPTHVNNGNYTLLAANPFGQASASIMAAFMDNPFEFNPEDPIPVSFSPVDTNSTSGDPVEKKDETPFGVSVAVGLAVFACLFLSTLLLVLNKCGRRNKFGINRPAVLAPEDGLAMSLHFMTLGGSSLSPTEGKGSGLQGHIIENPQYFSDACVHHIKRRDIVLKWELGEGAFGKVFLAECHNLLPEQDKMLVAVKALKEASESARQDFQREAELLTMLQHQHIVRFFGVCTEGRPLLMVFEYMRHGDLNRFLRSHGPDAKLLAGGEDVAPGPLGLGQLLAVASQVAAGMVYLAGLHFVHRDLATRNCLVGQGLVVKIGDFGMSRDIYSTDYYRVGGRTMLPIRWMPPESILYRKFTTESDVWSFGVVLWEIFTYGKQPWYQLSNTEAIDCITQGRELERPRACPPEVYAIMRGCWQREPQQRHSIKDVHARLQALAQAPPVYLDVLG
T1 sequence (Q16288 whole entry, the tested form may be a part): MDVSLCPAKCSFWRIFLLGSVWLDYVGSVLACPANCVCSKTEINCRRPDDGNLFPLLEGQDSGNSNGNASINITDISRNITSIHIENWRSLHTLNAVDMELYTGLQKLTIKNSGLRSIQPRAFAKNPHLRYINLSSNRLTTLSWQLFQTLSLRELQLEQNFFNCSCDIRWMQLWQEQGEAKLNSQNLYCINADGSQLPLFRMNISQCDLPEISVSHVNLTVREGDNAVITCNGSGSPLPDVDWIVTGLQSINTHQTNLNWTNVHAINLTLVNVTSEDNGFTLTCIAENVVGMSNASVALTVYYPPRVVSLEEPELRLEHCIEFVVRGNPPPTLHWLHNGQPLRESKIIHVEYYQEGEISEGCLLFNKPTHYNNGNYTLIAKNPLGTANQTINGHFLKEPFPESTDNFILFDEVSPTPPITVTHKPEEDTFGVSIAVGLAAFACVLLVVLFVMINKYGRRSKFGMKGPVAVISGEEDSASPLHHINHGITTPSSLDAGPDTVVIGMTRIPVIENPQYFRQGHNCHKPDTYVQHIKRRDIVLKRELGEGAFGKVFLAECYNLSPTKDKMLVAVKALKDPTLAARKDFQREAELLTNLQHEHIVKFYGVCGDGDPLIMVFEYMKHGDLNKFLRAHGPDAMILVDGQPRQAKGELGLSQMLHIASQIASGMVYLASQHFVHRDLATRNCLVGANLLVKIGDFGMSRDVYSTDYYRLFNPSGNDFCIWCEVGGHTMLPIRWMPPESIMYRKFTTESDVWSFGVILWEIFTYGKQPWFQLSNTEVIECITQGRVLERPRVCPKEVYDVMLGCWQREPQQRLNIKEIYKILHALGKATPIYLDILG
T2 sequence (P04629 510-796 limits assumed): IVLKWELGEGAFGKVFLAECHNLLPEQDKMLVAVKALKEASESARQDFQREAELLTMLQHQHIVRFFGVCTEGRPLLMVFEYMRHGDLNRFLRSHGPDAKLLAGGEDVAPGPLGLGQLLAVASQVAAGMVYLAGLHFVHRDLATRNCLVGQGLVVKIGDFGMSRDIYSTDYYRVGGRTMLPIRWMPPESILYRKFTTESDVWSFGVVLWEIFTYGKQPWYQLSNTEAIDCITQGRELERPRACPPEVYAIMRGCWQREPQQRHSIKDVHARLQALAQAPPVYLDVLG

Compound	IC50 (TrkA kinase; numeric values) [nM]	IC50 (Ba/F3-ETV6-NTRK3) [nM]	IC50 (Ba/F3-TPM3-NTRK1) [nM]	IC50 (TrkA kinase; class symbols) [nM]	microsomal CLint at 2 μM [1] [µL/min/mg]	half-life at 2 μM [1] [min]	microsomal CLint at 2 μM [2] [µL/min/mg]	half-life at 2 μM [2] [min]	microsomal CLint at 2 μM [3] [µL/min/mg]	half-life at 2 μM [3] [min]
COC(=O)[C@@H]1CCCN1c1cc2[nH]c(-c3cnn4ccc(N5CCC[C@@H]5c5cc(F)ccc5F)nc34)nc2cc1C#N [Compound 166, methyl (5-cyano-2-(5-((R)-2-(2,5-difluorophenyl)pyrrolidin-1-yl)pyrazolo[1,5-a]pyrimidin-3-yl)-1H-benzo[d]imidazol-6-yl)-L-prolinate]	2.5	7.73	4.67							
COC(=O)N[C@@H](C)c1nnc(-c2cnn3ccc(N4CCC[C@@H]4c4cc(F)ccc4F)nc23)[nH]1 [Compound 12, methyl ((S)-1-(5-(5-((R)-2-(2,5-difluorophenyl)pyrrolidin-1-yl)pyrazolo[1,5-a]pyrimidin-3-yl)-4H-1,2,4-triazol-3-yl)ethyl)carbamate]		2.72	7.71	> 50						
C[C@@](O)(c1nnc(-c2cnn3ccc(N4CCC[C@@H]4c4cc(F)ccc4F)nc23)[nH]1)C(F)(F)F [Compound 26, (R)-2-(5-(5-((R)-2-(2,5-difluorophenyl)pyrrolidin-1-yl)pyrazolo[1,5-a]pyrimidin-3-yl)-4H-1,2,4-triazol-3-yl)-1,1,1-trifluoropropan-2-ol]	2.6				40.5	34.2	25.9	53.5	23	60.2
Fc1ccc(F)c([C@H]2CCCN2c2ccn3ncc(-c4nc5cc6c(cc5[nH]4)OCCO6)c3n2)c1 [Compound 96, (R)-2-(5-(2-(2,5-difluorophenyl)pyrrolidin-1-yl)pyrazolo[1,5-a]pyrimidin-3-yl)-6,7-dihydro-1H-[1,4]dioxino[2′,3′:4,5]benzo[1,2-d]imidazole]	0.7				29.4	47.1	32	43.3	37	37.5

Further lines, results first:

IC50 (TrkA kinase; numeric values) [nM]	IC50 (Ba/F3-ETV6-NTRK3) [nM]	IC50 (Ba/F3-TPM3-NTRK1) [nM]	IC50 (TrkA kinase; class symbols) [nM]	microsomal CLint at 2 μM [1] [µL/min/mg]	half-life at 2 μM [1] [min]	microsomal CLint at 2 μM [2] [µL/min/mg]	half-life at 2 μM [2] [min]	microsomal CLint at 2 μM [3] [µL/min/mg]	half-life at 2 μM [3] [min]	Compound
	1.55									Fc1ccc(F)c([C@H]2CCCN2c2ccn3ncc(-c4nnc(-c5ccncc5)[nH]4)c3n2)c1 [Compound 8, (R)-5-(2-(2,5-difluorophenyl)pyrrolidin-1-yl)-3-(5-(pyridin-4-yl)-4H-1,2,4-triazol-3-yl)pyrazolo[1,5-a]pyrimidine]
	10	12.5	> 50							Fc1ccc(F)c([C@H]2CCCN2c2ccn3ncc(-c4nnc(-c5ccc(C(F)(F)F)nc5)[nH]4)c3n2)c1 [Compound 14, (R)-5-(2-(2,5-difluorophenyl)pyrrolidin-1-yl)-3-(5-(6-(trifluoromethyl)pyridin-3-yl)-4H-1,2,4-triazol-3-yl)pyrazolo[1,5-a]pyrimidine]
	4.21	9.18	> 50							CCOC(=O)c1nnc(-c2cnn3ccc(N4CCC[C@@H]4c4cc(F)ccc4F)nc23)[nH]1 [Compound 16, ethyl (R)-5-(5-(2-(2,5-difluorophenyl)pyrrolidin-1-yl)pyrazolo[1,5-a]pyrimidin-3-yl)-4H-1,2,4-triazole-3-carboxylate]
	1.83	0.98	≤ 10							N#Cc1cccc(-c2nnc(-c3cnn4ccc(N5CCC[C@@H]5c5cc(F)ccc5F)nc34)[nH]2)c1 [Compound 13, (R)-3-(5-(5-(2-(2,5-difluorophenyl)pyrrolidin-1-yl)pyrazolo[1,5-a]pyrimidin-3-yl)-4H-1,2,4-triazol-3-yl)benzonitrile]
0.27				17.2	80.6	24	57.8	12.6	110	Fc1ccc(F)c([C@H]2CCCN2c2ccn3ncc(-c4nc5cnccc5[nH]4)c3n2)c1 [Compound 65, (R)-2-(5-(2-(2,5-difluorophenyl)pyrrolidin-1-yl)pyrazolo[1,5-a]pyrimidin-3-yl)-1H-imidazo[4,5-c]pyridine]
